According to patent publication US20090042969A1, “Use of Specific Trifluoromethyl Ketones for Preventing and Treating Pancreatitis” (priority 2005, published 2009):
Entries after “also recorded” stand apart in the source; their conditions may differ. Like-named read-outs stand apart in the source and are kept apart here.

Legend:
[1] = test system: caerulein-induced pancreatitis; experiment: Morphological damage of the pancreas in caerulein-induced pancreatitis; format: in vivo, rat
Procedure: (§1) Male Wistar rats (140 to 250 g) were anesthetized with pentobarbital (30 mg/kg). A cannula was placed in the jugular vein, and a supramaximal concentration of caerulein (10 μg/kg per hour) was administered to the animals by infusion for four and twelve hours. […] Animals which received a saline solution as infusion and were fed with compound II through a tube served as control. Each treatment group consisted of five animals. After the exsanguination under ether anesthesia, the pancreas was quickly removed and freed of fat, and tissue blocks were fixed in 5% paraformaldehyde for the histology in paraffin-embedded sections. The largest portion of the pancreas was frozen in liquid nitrogen and stored at −80° C. for later protein analysis and for detection of the enzyme activity.
(§2) The animals were sacrificed after four and twelve hours, and pancreatic tissue, serum and lung tissue were collected for further analyses (see FIG. 2).

cathepsin L = biological target: T1, cathepsin L (Homo sapiens, UniProt P07711); experiment: In vitro inhibitor specificity: cathepsin L activity; format: biochemical; details: compound II 1 nM to 1 mM
T1 construct: prepared from human liver; purchased Calbiochem; host or cells: prepared from human liver
T1 sequence (P07711 114-333): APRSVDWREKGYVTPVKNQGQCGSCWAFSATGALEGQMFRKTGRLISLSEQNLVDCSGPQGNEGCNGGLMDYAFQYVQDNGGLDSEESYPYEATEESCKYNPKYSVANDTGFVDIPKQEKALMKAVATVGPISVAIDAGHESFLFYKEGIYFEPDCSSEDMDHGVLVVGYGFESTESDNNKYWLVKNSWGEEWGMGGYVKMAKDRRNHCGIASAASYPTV

[2] = test system: caerulein-induced pancreatitis; experiment: Myeloperoxidase activity and morphology of the lung during caerulein-induced pancreatitis; format: in vivo, rat
Procedure: as §1, §2
Pancreatitis influences not only the pancreas but also leads to a systemic inflammatory response which affects other organs such as the kidneys or the lung. […] The morphological differences in the lung tissues during caerulein-induced pancreatitis consisted of accumulations of alveolar fluid and a progressive thickening, hyperemia and neutrophil infiltration of the intraalveolar tissue. […]

myeloperoxidase = biological target: T2, myeloperoxidase (Homo sapiens, UniProt P05164); experiment: In vitro inhibitor specificity: myeloperoxidase activity; format: biochemical; details: compound II 1 nM to 1 mM
T2 construct: purified from blood by HPLC; purchased Calbiochem; host or cells: purified from blood
T2 sequence (P05164 279-745 limits assumed): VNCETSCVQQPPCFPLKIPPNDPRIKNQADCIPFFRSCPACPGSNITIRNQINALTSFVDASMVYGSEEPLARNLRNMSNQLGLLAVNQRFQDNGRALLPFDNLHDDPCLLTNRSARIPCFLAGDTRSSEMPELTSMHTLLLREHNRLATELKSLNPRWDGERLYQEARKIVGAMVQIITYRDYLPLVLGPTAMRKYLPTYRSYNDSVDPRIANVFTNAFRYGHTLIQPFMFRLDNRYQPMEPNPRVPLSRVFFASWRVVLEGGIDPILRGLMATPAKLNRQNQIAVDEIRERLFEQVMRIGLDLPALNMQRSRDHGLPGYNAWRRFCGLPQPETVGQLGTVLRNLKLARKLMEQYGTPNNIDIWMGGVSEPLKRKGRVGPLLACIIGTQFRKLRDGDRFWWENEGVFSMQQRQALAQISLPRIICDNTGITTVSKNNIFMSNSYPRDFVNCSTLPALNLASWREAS
T2 sequence (P05164 165-273 limits assumed): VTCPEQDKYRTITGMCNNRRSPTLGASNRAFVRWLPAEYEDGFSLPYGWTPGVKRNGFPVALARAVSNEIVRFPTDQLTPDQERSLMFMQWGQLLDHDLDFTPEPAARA
Procedure: (§3) Caerulein was obtained from Pharmacia, Freiburg, Germany. Human neutrophil elastase was purchased from Calbiochem (San Diego, Calif., U.S.A.). This commercial product was purified from human serum by HPLC (protein concentration >20 units/mg of protein specific activity; in 50 mM sodium acetate pH 5.5 and 200 mM sodium chloride; purity >95%). Human myeloperoxidase was purchased from Calbiochem and purified from blood by HPLC (1 mg/10 ml protein concentration, 150 to 200 units mg protein specific protein activity, in 100 mM sodium chloride, 50 mM sodium acetate, purity >95%). Porcine pancreatic elastase was purchased from Calbiochem and was purified from porcine pancreas. […]
(§4) The trypsin activity (10 mU), myeloperoxidase activity (100 mU) and the neutrophil elastase activity (10 mU) was determined by using the specific fluorogenic substrates [CBZ-Ile-Pro-Arg]2-rhodamine 110 or [CBZ-Ala4]-aminomethylcoumarin (AMC) in 100 mM tris-HCl buffer (pH 8.0), which contained 5 mM CaCl2, 10 μM substrate (final concentration) and 10 mU of bovine trypsin in a volume of 150 μl, at an excitation wavelength of 485 nm and an emission wavelength of 530 nm or an excitation wavelength of 350 nm and an emission wavelength of 460 nm at 37° C. The initial rates of the substrate hydrolysis were measured as arbitrary fluorescence units per minute. […]

[3] = biological target: T3, human neutrophil elastase (Homo sapiens, UniProt P08246); experiment: In vitro inhibitor specificity: neutrophil elastase activity; format: biochemical
T3 construct: This commercial product was purified from human serum by HPLC; purchased Calbiochem; host or cells: purified from human serum
T3 sequence (P08246 30-267): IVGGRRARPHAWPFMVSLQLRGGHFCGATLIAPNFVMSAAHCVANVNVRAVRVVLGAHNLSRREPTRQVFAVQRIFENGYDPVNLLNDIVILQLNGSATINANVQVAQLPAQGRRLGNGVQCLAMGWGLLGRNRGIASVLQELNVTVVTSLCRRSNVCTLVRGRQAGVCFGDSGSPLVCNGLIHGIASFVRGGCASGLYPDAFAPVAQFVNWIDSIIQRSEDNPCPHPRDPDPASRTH
Procedure: Human neutrophil elastase was purchased from Calbiochem (San Diego, Calif., U.S.A.). This commercial product was purified from human serum by HPLC (protein concentration >20 units/mg of protein specific activity; in 50 mM sodium acetate pH 5.5 and 200 mM sodium chloride; purity >95%). […] Porcine pancreatic elastase was purchased from Calbiochem and was purified from porcine pancreas. The specific activity was 50 units/mg of protein in 50 mM potassium phosphate buffer, pH 7.0. […]

pancreatic elastase = biological target: T4, pancreatic elastase (Sus scrofa, UniProt P00772); experiment: In vitro inhibitor specificity: pancreatic elastase activity; format: biochemical, porcine
T4 construct: was purified from porcine pancreas; purchased Calbiochem; host or cells: purified from porcine pancreas
T4 sequence (P00772 27-266): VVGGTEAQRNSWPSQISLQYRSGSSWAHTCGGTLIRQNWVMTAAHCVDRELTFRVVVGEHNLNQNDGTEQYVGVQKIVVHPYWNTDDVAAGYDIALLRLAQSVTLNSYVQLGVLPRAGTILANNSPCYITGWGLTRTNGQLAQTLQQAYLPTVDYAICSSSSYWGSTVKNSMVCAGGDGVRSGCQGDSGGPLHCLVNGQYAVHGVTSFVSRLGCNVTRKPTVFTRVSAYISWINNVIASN
Procedure: as §3, §4

trypsin = biological target: T5, trypsin (Bos taurus, UniProt P00760); experiment: In vitro inhibitor specificity: trypsin activity; format: biochemical, bovine; details: compound II 1 nM to 1 mM
T5 sequence (P00760 24-246): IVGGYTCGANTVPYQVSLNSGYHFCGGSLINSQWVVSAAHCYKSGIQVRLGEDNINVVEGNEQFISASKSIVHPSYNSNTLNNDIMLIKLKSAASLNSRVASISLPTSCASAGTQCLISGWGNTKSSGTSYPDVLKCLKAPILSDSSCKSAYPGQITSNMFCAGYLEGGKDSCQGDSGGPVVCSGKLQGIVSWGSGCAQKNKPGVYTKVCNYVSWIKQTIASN
Procedure: The trypsin activity (10 mU), myeloperoxidase activity (100 mU) and the neutrophil elastase activity (10 mU) was determined by using the specific fluorogenic substrates [CBZ-Ile-Pro-Arg]2-rhodamine 110 or [CBZ-Ala4]-aminomethylcoumarin (AMC) in 100 mM tris-HCl buffer (pH 8.0), which contained 5 mM CaCl2, 10 μM substrate (final concentration) and 10 mU of bovine trypsin in a volume of 150 μl, at an excitation wavelength of 485 nm and an emission wavelength of 530 nm or an excitation wavelength of 350 nm and an emission wavelength of 460 nm at 37° C. The initial rates of the substrate hydrolysis were measured as arbitrary fluorescence units per minute. The cathepsin B activity (100 mU) and cathepsin L activity (100 mU) were then determined in 0.25 M sodium acetate buffer (pH 5.0), which contained 2 mM EDTA 1 mM DTT, 10 μM of the specific substrate CBZ-[Arg]2-aminomethylcoumarin or 10 μM [CBZ-Phe-Arg]-rhodamine 110 (final concentration) in a final volume of 150 μl, at an excitation wavelength of 350 nm and an emission wavelength of 460 nm or 485 nm and an emission wavelength of 530 nm at 37° C.
The results were calculated in percent of the initial enzyme activity (Kukor et al., 2002).

[4] = test system: caerulein-induced pancreatitis; experiment: Serum amylase activity (hyperamylasemia) in caerulein-induced pancreatitis; format: in vivo, rat; details: oral administration; four and twelve hours of pancreatitis
Procedure: as §1, §2

cathepsin B = biological target: T6, cathepsin B (Homo sapiens, UniProt P07858); experiment: In vitro inhibitor specificity: cathepsin B activity; format: biochemical; details: compound II 1 nM to 1 mM
T6 construct: This commercial product was purified from human liver by HPLC; purchased Calbiochem; host or cells: purified from human liver

[5] = test system: caerulein-induced pancreatitis; experiment: Myeloperoxidase activity in pancreatic homogenates in caerulein-induced pancreatitis; format: in vivo, rat; details: oral 240 mg/kg per day
Procedure: as §1, §2
To measure the myeloperoxidase (MPO) activity, the tissue was thawed and homogenized on ice in 20 mM potassium phosphate buffer (pH 7.4) and centrifuged at 20 000 g at 4° C. for 10 minutes. The pellet was resuspended in […] potassium phosphate buffer (pH 6.0) which contained 0.5% cethyltrimethylammonium bromide. […]
The original increase in the absorption at 450 nm was measured at room temperature using a Dynatech MR 5000 ELISA reader. […]

[6] = test system: caerulein-induced pancreatitis; experiment: Pancreatic water content (edema) in caerulein-induced pancreatitis; format: in vivo, rat; details: oral 240 mg/kg per day
Procedure: as §1, §2
Determination of the pancreatic water content: the water content of the pancreas was determined by comparing the freshly obtained tissue (wet weight) with the weight of the same sample after drying (dry weight). In order to ensure complete drying, the tissue was incubated at […] for 24 hours, a constant weight being reached. The results were represented as percentage of the difference between the wet weight and the dry weight divided by the original wet weight.

[7] = Pharmacokinetics (half-life, AUC, bioavailability); set-up: species or system rats, hamsters and dogs; details: rat, hamster, dog, in vivo
neutrophil elastase = experiment: Inhibition of neutrophil elastase after oral or intravenous administration; format: in vivo
[8] = compound II together with caerulein

COc1ccc(C(=O)N[C@H](C(=O)N2CCC[C@H]2C(=O)N[C@H](C(=O)C(F)(F)F)C(C)C)C(C)C)cc1 [compound II]
morphological changes like those observed in acute pancreatitis ([1]; compound II alone, no caerulein): did not lead to any morphological changes
development of the interstitial edema and the intracellular vacuolization [1, 8]: prevented
number of infiltrating inflammatory cells in pancreas [1, 8]: greatly reduced
influence on cathepsin L activity (cathepsin L): not significantly influenced
influence on cathepsin L activity (cathepsin L; listed as Compound II): does not inhibit
morphological differences in lung tissue (alveolar fluid, thickening, hyperemia, neutrophil infiltration) [2]: reduced
MPO activity in lung tissue ([2]; effect greater after twelve than four hours): significant reduction
influence on myeloperoxidase activity (myeloperoxidase): not significantly influenced; also recorded: excluded
influence on myeloperoxidase activity (myeloperoxidase; listed as Compound II): does not inhibit
inhibitory activity for human neutrophil elastase by comparison with pancreatic elastase [3]: five times higher
Ki (pancreatic elastase): 0.2 µM
IC50 (pancreatic elastase; FIG. 1): 1 µM
influence on trypsin activity (trypsin): not significantly influenced
influence on trypsin activity (trypsin; listed as Compound II): does not inhibit
amylase activity in serum [4]: significantly reduced
influence on cathepsin B activity (cathepsin B): not significantly influenced
influence on cathepsin B activity (cathepsin B; listed as Compound II): does not inhibit
reduction in MPO activity in pancreatic tissue [5]: more than 50%
change in the water content of the pancreas ([6]; compound II alone (control 2), no caerulein): did not lead to a significant change
formation of pancreatic edemas (water content) ([6]; four and twelve hours after starting caerulein infusion): significant reduction
AUC ([7]; intravenous, read-out: intravenous AUC): 1.36 to 3.18 µg·h/mL
bioavailability ([7]; oral versus intravenous AUC, read-out: percentage bioavailability): 26 to 82%
AUC ([7]; oral, read-out: oral bioavailability (AUC)): 0.355 to 1.4 µg·h/mL
half-life ([7]; rats, hamsters and dogs, read-out: biological half-life): 0.82 to 2 h
dose to inhibit 50% of the enzyme activity (neutrophil elastase; intravenous administration): 0.59 mg/kg of body weight
dose to inhibit 50% of the enzyme activity (neutrophil elastase; oral administration): 4.9 mg/kg of body weight
inhibition of neutrophil elastase (neutrophil elastase; oral administration of 10 mg/kg of body weight): 84%
